Molecules are shown by their SMILES.

What is called pKa is the pH at which an ionisable group is half protonated. Low values mean a stronger acid or weaker base, high ones a weaker acid or stronger base.

A short description of this series: pKa value was determined. In kind it is physicochemical.
`CC(C)(S)[C@@H](N)C(=O)O` [PENICILLAMINE] displayed a pKa of 8.53.

Take `CC(=O)N[C@@H](CS)C(=O)O` [ACETYLCYSTEINE]: the pKa amounted to 9.52.

`CCOC(=O)[C@@H](N)CS` displayed a pKa of 6.5.

As for `CC(=O)NC(C(=O)O)C(C)(C)S` (stereo not given) [N-ACETYL PENICILLAMINE], the pKa is 9.9.

As to `N[C@@H](CCC(=O)N[C@@H](CS)C(=O)NCC(=O)O)C(=O)O` [GLUTATHIONE], the pKa was found to be 8.75.

The record behind these values is ChEMBL document CHEMBL1134179, “Equilibrium and kinetics studies of transnitrosation between S-nitrosothiols and thiols” (Bioorg Med Chem Lett, 2001).
